Results published in patent publication US20160000737A1, “TREATMENT OF PETS WITH SIRTUIN ACTIVATORS” (NUSIRT SCIENCES, INC., priority 2013, published 2016).
Marks after values point to notes of the source that are not given here. One block for each molecule: values may come before it.

How the values were obtained:
SIRT1 = target: T1, SIRT1 (Mus musculus, UniProt Q923E4); assay: Adipose tissue SIRT1 activity (SIRT1 Fluorimetric Drug Discovery Kit); type: in vivo, c57/BL6 mice
T1 construct: effects of dietary treatments on adipose tissue Sirt1 activity; from tissue; host or cells: mouse adipose tissue
T1 sequence (Q923E4 1-737): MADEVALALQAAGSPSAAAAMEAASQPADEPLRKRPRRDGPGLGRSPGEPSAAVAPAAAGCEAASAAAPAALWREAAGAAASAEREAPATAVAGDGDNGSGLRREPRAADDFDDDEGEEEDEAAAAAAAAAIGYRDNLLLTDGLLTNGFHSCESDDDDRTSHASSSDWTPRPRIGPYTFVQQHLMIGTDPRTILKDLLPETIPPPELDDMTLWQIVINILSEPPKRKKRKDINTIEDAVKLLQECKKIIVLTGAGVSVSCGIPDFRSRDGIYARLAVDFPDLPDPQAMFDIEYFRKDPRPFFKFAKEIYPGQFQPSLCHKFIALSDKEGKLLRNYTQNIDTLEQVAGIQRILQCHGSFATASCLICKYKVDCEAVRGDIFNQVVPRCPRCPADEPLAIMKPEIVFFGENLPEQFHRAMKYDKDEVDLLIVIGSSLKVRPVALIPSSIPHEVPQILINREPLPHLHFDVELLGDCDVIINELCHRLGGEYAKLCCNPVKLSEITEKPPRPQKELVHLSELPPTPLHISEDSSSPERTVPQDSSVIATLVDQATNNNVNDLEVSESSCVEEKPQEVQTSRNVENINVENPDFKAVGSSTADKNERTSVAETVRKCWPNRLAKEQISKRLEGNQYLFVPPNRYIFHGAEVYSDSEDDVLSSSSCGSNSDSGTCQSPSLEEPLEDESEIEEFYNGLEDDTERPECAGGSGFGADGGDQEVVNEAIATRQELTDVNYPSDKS
Procedure: SIRT1 activity was measured by using the SIRT1 Fluorimetric Drug Discovery Kit (BML-AK555, ENZO Life Sciences International, Inc. PA, USA). In this assay, SIRT1 activity is assessed by the degree of deacetylation of a standardized substrate containing an acetylated lysine side chain. The substrate utilized is a peptide containing amino acids 379-382 of human p53 (Arg-His-Lys-Lys[Ac]), an established target of SIRT1 activity; SIRT1 activity is directly proportional to the degree of deacetylation of Lys-382. Samples were incubated with peptide substrate (25 μM), and NAD^+ (500 μM) in a phosphate-buffered saline solution at 37° C. on a horizontal shaker for 45 minutes. The reaction was stopped with the addition of 2 mM nicotinamide and a developing solution that binds to the deacetylated lysine to form a fluorophore. Following 10 minutes incubation at 37° C., fluorescence was read in a plate-reading fluorometer at an excitation wavelength of 360 nm and an emission wavelength of 450 nm. Resveratrol ([…]) served as a SIRT1 activator and suramin sodium (25 mM) as a SIRT1 inhibitor; wells including each were utilized as positive and negative controls in each set of reactions. A standard curve was constructed using deacetylated substrate (0-10 μM). Data was normalized to cellular protein concentration measured via BCA-assay.

[1] = test system: inflammatory biomarkers (C-reactive protein, IL-6, MCP-1, adiponectin); assay: Inflammatory biomarkers in diet-induced obese mice; type: in vivo, c57/BL6 mice; conditions: for Adiponectin / C-reactive protein / IL-6 / MCP-1: 6 weeks
Procedure: (§1) The animals were housed in polypropylene cages at a room temperature of 22±2° C. and regime of 12 h light/dark cycle. The animals had free access to water and their experimental food throughout the experiment. At the of the treatment period (6 weeks) all animals were humanely euthanized, and blood and tissues collected for further experiments.

diet-induced obese mice [2] = assay: Indices of insulin sensitivity (plasma glucose, insulin, HOMAIR); type: in vivo, c57/BL6 mice; conditions: resveratrol at either dose, HMB, each alone
Procedure: Insulin sensitivity can be measured using a variety of techniques, including HOMAIR. HOMAIR, which is the homeostasis model assessment of insulin resistance can be used as a screening index of changes in insulin sensitivity. HOMAIR can be calculated via standard formula from fasting plasma insulin and glucose as follows: HOMAIR=[Insulin (uU/mL)×glucose (mM)]/22.5.
as §1

[3] = Circulating level after dosing; type: in vivo
diet-induced obese mice [4] = assay: Oxygen consumption/substrate utilization in metabolic chambers (CLAMS); type: in vivo, c57/BL6 mice
Procedure: at the end of the obesity induction period (day 0 of treatment group) and at 2 weeks and 6 weeks of treatment, oxygen consumption and substrate utilization was measured via metabolic chambers using the Comprehensive Lab Animal Monitoring Systems (CLAMS, Columbus Instruments, Columbus, Ohio) in subgroups of each treatment group. Each animal was placed in individual cages without bedding that allow automated, non-invasive data collection. Each cage is an indirect open circuit calorimeter that provides measurement of oxygen consumption, carbon dioxide production, and concurrent measurement of food intake. All mice were acclimatized to the chambers for 24 hours prior to the experiment and maintained under the regular 12:12 light:dark cycle with free access to water and food. All experiments were started in the morning and data were collected for 24 hours. Each chamber was passed with 0.61 of air/min and was sampled for 2 min at 32-minute intervals. Exhaust O2 and CO2 content from each chamber was compared with ambient O2 and CO2 content. Food consumption was measured by electronic scales.

diet-induced obese mice [5] = assay: Diet-induced obese mice on resveratrol/HMB/leucine diets: body weight, weight gain, adiposity; type: in vivo, c57/BL6 mice
Source text: Six week old male c57/BL6 mice were fed a high-fat diet with fat increased to 45% of energy (Research Diets D12451) for 6 weeks to induce obesity. At the end of this obesity induction period, animals were randomly divided into the following seven different diet treatment groups with 10 animals per group (overall 70 animals) and maintained on these diets for 6 weeks:
Group 1 (labeled “control group”): high-fat diet only (same as in obesity induction period (Research Diets D12451)).
This diet was modified for groups 2 to 7 in the following way:
Group 2 (labeled “low dose resveratrol”): high-fat diet mixed with 12.5 mg resveratrol/kg diet.
Group 3 (labeled “high dose resveratrol”): high-fat diet mixed with 225 mg resveratrol/kg diet.
Group 4 (labeled “low dose HMB”): high-fat diet mixed with 2 g of the calcium salt of hydroxymethylbutyrate, a naturally occurring metabolite of leucine (CaHMB).
Group 5 (labeled “low dose resveratrol plus low dose CaHMB”): high fat-diet mixed with 12.5 mg of resveratrol/kg diet and 2 g CaHMB/kg diet.
Group 6 (labeled “low dose resveratrol plus high dose HMB”): high fat-diet mixed with 12.5 mg of resveratrol/kg diet and 10 g CaHMB/kg diet.
The animals were housed in polypropylene cages at a room temperature of 22±2° C. and regime of 12 h light/dark cycle. The animals had free access to water and their experimental food throughout the experiment. […]

diet-induced obese mice [6] = assay: microPET/CT glucose and palmitate uptake; type: in vivo, c57/BL6 mice; conditions: 6 weeks
Procedure: at the end of the treatment period (6 weeks of treatment) subgroups of each treatment diet group (5 animals/group, 35 animals total) were used to measure whole body glucose and palmitate uptake via PET/CT Imaging. To visualize these compounds using microPET imaging, the glucose or palmitate was labeled with fluorine-18 (108 mins half life) or carbon-11 (20 mins half life), respectively. Each mouse was fasted for 4 hours, then anesthetized using 1-3% isoflurane delivered by nose cone or in a mouse-sized induction chamber purpose-built for small animal imaging protocols. While under anesthesia the mice were injected iv with <2 mCi of each tracer, then be left for a period of time (minutes to up˜1 hour) to allow the uptake of the tracer. During the scan, mice were kept warm using a thermostatically controlled heated bed and were treated with ophthalmic ointment prior to scanning Following the live scan the mice were returned to their cage and revived. Mice were monitored constantly during this time. Following live data acquisition the mice were sacrificed by isoflurane overdose and organs harvested for further experiments.

[7] = high dose: 225 mg resveratrol/kg diet
[8] = low dose: 12.5 mg resveratrol/kg diet

circulating level of resveratrol ([3]; oral dosing of about 10 mg, subject about 30 lb): about 200 nM
circulating level of resveratrol ([3]; oral dosing of about 50 mg, subject about 150 lb): about 200 nM
circulating level of resveratrol ([3]; oral dosing of about 220 mg, subject about 30 lb): about 0.5 mM
circulating level of resveratrol ([3]; oral dosing of about 1100 mg, subject about 150 lb): about 0.5 mM
SMILES: Oc1ccc(/C=C/c2cc(O)cc(O)c2)cc1 [Resveratrol, 3,5,4′-Trihydroxy-trans-stilbene]
adipose tissue Sirt1 activity (SIRT1; high dose resveratrol): non-significant trend towards an increase
adipose tissue Sirt1 activity (SIRT1; resveratrol or HMB alone): Neither resveratrol nor HMB exerted significant independent effects
effect on MCP-1 or c-reactive protein ([1]; HMB or low dose of resveratrol alone): neither HMB nor a low dose of resveratrol exerted any effect
circulating IL-6 ([1]; high dose of resveratrol): significantly reduced
Adiponectin [1, 7]: 14.8 ± 1.8^b ng/mL
C-reactive protein [1, 7]: 123.9 ± 35.3^a ng/mL
IL-6 [1, 7]: 14.1 ± 1.3^b pg/mL
MCP-1 [1, 7]: 27.3 ± 6.8^b pg/mL
circulating IL-6 ([1]; low dose of resveratrol alone): no independent effect
Adiponectin [1, 8]: 12.4 ± 1.1 ng/mL
C-reactive protein [1, 8]: 134.8 ± 8.5^a ng/mL
IL-6 [1, 8]: 23.2 ± 2.9^a pg/mL
MCP-1 [1, 8]: 104.4 ± 16.5^a pg/mL
effect on plasma insulin or on muscle glucose uptake (diet-induced obese mice [2]): Neither resveratrol at either dose nor HMB exerted any significant effect
RER (diet-induced obese mice [4]; high dose of resveratrol): decreased
heat production and skeletal muscle fat oxidation (diet-induced obese mice [4]; high dose of resveratrol): significantly increased
Respiratory Exchange Ratio (24 hr RER) (diet-induced obese mice [4]; [7]): 0.825 ± 0.007^b
Respiratory Exchange Ratio (24 hr RER) (diet-induced obese mice [4]; [8]): 0.847 ± 0.008^a
effect on body weight, weight gain, or visceral adipose tissue mass (diet-induced obese mice [5]; high dose resveratrol): no significant effect
effect on body weight, weight gain, visceral adipose tissue mass, fat oxidation, respiratory exchange ratio (RER), or heat production (diet-induced obese mice [5]; low doses, each alone): no significant independent effect
Muscle Glucose Uptake (18F-deoxyglucose SUV) (diet-induced obese mice [6]; [7]): 3.87 ± 0.32^a SUV
Muscle Glucose Uptake (18F-deoxyglucose SUV) (diet-induced obese mice [6]; [8]): 3.63 ± 1.29^a SUV

circulating level of leucine ([3]; dosing of about 60 mg leucine, subject weighing about 30 lb): about 0.25 mM
circulating level of leucine ([3]; dosing of about 225 mg leucine, subject weighing about 30 lb): about 0.5 mM
circulating level of leucine ([3]; dosing of about 300 mg leucine, subject weighing about 150 lb): about 0.25 mM
circulating level of leucine ([3]; dosing of about 1,125 mg leucine, subject weighing about 150 lb): about 0.5 mM
SMILES: CC(C)C[C@H](N)C(=O)O [leucine, L-leucine]
